# Data from patent US11484529B2, “Desmethylanethole trithione derivatives for the treatment of diseases linked to mitochondrial reactive oxygen species (ROS) production” (OP2 Drugs, priority 2017, dated 2022).
# Legend:
# [1] = system: isolated perfused rat heart; experiment: Global ischemia-reperfusion of isolated perfused rat heart (Langendorff); details: 10 μM AOL pretreatment, 30 min ischemia
# Protocol: The consequences of 30 minutes' global ischemia followed by 120 minutes' reperfusion (FIG. 11) on contractility and tissue viability were studied on isolated perfused rat heart pretreated or not (control vehicle) with 10 μM AOL.
# All procedures conformed to the UK Animals (Scientific Procedures) Act 1986 and the Guide for the Care and Use of Laboratory Animals published by the National Institutes of Health (NIH Publication No. 85-23. revised 1996). Male Wistar rats (250-300 g) were anesthetized by 3% isoflurane, heparinized and euthanized by a lethal IP injection of pentobarbital (130 mg/kg). […] Langendorff heart perfusions were performed (Garlid et al., 2006. Am. J. Physiol. Heart Circ. Physiol. 291(1):H152-60) and contractility was assessed by continuous measurement of the rate pressure product (RPP) thanks to a balloon placed in the left ventricle and connected to a pressure transducer. […]
# At the end of the reperfusion period, hearts were stained with triphenyltetrazolium chloride (TTC): hearts were perfused for 7 minutes at 13 mL/min with a 12% (w/v) TTC solution in order to get a 1% final concentration in the heart. […] The surface of the necrotic and at-risk areas of each side were determined on each photography by planimetry (AlphaEase v5.5), and infarct size was expressed as a percentage of the total cross-sectional area of the heart, since total heart was subjected to ischemia.
# [2] = system: isolated rat heart mitochondria; experiment: Mitochondrial ATP synthesis (phosphorylation rate, pH electrode); type: biochemical
# Protocol: Male Wistar rats (250-325 g; obtained from Janvier Labs, Le Genest-Saint-Isle, France) were killed by stunning and cervical dislocation, and the heart was quickly removed and washed in cold isolation medium containing 100 mM sucrose, 180 mM KCl, 50 mM Tris, 5 mM MgCl2, 10 mM EDTA, and 0.1% (w/v) defatted BSA (pH 7.2).
# Isolation of heart mitochondria was performed in a cold chamber. Before homogenization, hearts (about 1.5 g) were minced with scissors and treated for 5 minutes in 5 mL of the same medium supplemented with protease (2 mg of bacterial proteinase type XXIV per mL of isolation buffer) with stirring. The tissue suspension was poured into a 50-mL glass Potter homogenizer, diluted with 20 mL of isolation buffer, then homogenized for 3 minutes using a motorized Teflon pestle. The homogenate was filtered through bolting cloth (Sefar Nitex) to remove debris, and centrifuged at 8,000 g for 10 minutes. The resulting pellet was rinsed with 5 mL of isolation buffer, resuspended in 25 ml of the same buffer, then subjected to low speed centrifugation (400 g) for 8 minutes. […] Protein concentration was determined by the Bradford method (Sigma, kit # B6916) using BSA as standard. […]
# ATP synthesis was measured under the same conditions using a high sensitivity pH electrode (Metrohm) as previously described (Gouspillou et al., 2014. Aging Cell. 13(1):39-48).
# [3] = system: carcinoma cell lines A549 and H460; experiment: Cytotoxicity, sulforhodamine B (SRB) assay; type: cell-based, human; details: 48 hours
# Protocol: Human non-small cell carcinoma cell line H460 and A549 were obtained from ATCC. Cells were cultured in growth medium consisting of DMEM (GIBCO), 10% FBS (GIBCO) and 100 units of penicillin and 100 μg/mL streptomycin (GIBCO). The cells were maintained in either 75-cm^2 T-flasks or 175-cm^2 T-flasks (BD Biosciences) in an incubator (model 3100 series, Forma Scientific, Marietta, Ohio) controlled at 37° C., 95% humidity, and 5% CO2. Cell culture medium was refreshed every other day. Every 2 to 3 days, H460 and A549 cultures were detached from the flasks using a 0.25% trypsin solution (Gibco) and subcultured. All cultures were maintained at 80-90% confluence at the time of subculture.
# Cytotoxicity screening was carried out by sulforhodamine B colorimetric assay. A549 and H460 cells (2·10^3) were seeded in a 96-well plate, and after adherence, cells were incubated with 5 to 500 μM of AOL or AOX or control dimethyl sulfoxide (DMSO). Cytotoxicity was evaluated after 48 hours treatment sulforhodamine B (SRB) assay, according to Vichai (Vichai et al., 2006. Nat. Protoc. 1(3):1112-6).
SMILES,infarcted tissue rescued (TTC staining) ([1]; 120 min reperfusion),heart contractility (RPP) relative to control hearts ([1]; after 2 hours of reperfusion),concentration that completely abolishes phosphorylation rate [2],concentrations that do not modify ATP synthesis [2],concentrations without significant toxicity [3],"IC50 ([3]; Homo sapiens, 0 to 500 μM, read-out: IC50 for high dose toxicity)"
"COc1ccc(-c2cc(=S)ss2)cc1 [AOL, 5-(4-methoxyphenyl)-3H-1,2-dithiole-3-thione]",about 50%,about three times higher than control hearts,–,–,–,–
"Oc1ccc(-c2cc(=S)ss2)cc1 [AOX, 5-(4-hydroxyphenyl)-3H-1,2-dithiole-3-thione]",–,–,60 µM,lower than 20 μM,lower than 100 μM,134.8 ± 0.3 µM
